One series relates to CD28 signalling. The settings on record: cited from earlier work.
In series [1] the target is association of PI 3-kinase with CD28 (Homo sapiens, UniProt P27986). As to the kind of experiment: Peptide competition: displacement of PI 3-kinase from CD28 (anti-CD28 immunoprecipitation, anti-p85 immunoblotting). The series is classed as binding. Particulars: peptide 10-50 μM; longer exposure of autoradiograph. A general note: In western blotting, separated proteins are transferred to a membrane and probed.
Sequence of association of PI 3-kinase with CD28 (P27986 whole entry): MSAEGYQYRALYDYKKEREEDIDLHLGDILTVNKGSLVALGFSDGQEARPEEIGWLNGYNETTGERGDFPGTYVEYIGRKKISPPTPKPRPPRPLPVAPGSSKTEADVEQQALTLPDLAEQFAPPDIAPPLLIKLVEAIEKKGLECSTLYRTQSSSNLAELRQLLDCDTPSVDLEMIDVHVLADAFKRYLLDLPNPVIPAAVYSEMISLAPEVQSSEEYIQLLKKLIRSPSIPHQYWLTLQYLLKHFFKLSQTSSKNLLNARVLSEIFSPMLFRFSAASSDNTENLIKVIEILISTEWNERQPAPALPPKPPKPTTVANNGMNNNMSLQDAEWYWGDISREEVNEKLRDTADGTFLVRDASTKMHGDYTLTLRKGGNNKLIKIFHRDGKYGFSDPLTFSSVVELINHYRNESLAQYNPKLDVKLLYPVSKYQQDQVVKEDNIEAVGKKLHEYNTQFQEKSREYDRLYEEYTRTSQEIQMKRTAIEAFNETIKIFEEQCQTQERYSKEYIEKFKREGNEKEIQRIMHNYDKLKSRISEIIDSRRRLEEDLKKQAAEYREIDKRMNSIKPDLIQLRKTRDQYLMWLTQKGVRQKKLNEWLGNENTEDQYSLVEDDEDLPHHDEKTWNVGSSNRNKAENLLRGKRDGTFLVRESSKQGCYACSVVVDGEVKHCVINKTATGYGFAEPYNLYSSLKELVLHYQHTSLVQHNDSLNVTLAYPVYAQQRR

For the next series, the system named is PI 3-kinase. The experiment in a line: CD28-associated PI 3-kinase lipid kinase activity of CD28 mutants in transfected Cos-1 cells after anti-CD28 crosslinking (TLC, laser densitometry). The series is classed as cell-based. The settings on record: relative to wild type CD28. From the text: FIG. 8 is a photograph of TLC analysis of lipid products following CD28 crosslinking. Cos-1 cells were transfected with wild type CD28 (WT) (lane 2), Tyr-191 to Phe mutant (F191) (lane 3), Met-194 to Cys (C194) (lane 4), and Tyr-209 to Phe (F209) (lane 5). Transfected cells were then subjected to anti-CD28 crosslinking, immunoprecipitation and lipid kinase analysis. Non-transfected cells served as a negative control (lane 1), while immunoprecipitation with anti-p85 antibody served as a positive control (lane 6).
FIG. 9 is a bar graph showing relative autoradiographic intensities of PI-P spots detected in the TLC analysis shown in FIG. 8. Intensity was quantitated by laser densitometric scanning.
The lipid kinase reaction was carried out on beads using soybean phosphatidyl inositol liposomes and γ32P-ATP (20 μCi). Lipids were then extracted using chloroform and methanol (1:1) and separated by thin layer chromatography on a silica gel plate precoated with potassium oxalate using a basic system (chloroform, methanol, water, ammonium hydroxide (60:47:11.3:2), as described in Whitman et al., supra and Auger et al., supra. The corresponding TLC spots were cut, counted for Cherenkov counts and extracted with a solution containing methylamine, methanol and n-butanol (57.7 ml of 25% methylamine in water, 61.6 ml of methanol and 15.6 ml of n-butanol) for 1 h at 53° C. This method also results in the deacylation of lipids. The samples were dried under vacuum and reconstituted in water. […] The deacylated phospholipids were analyzed on a Beckman HPLC system using an ion exchange column and a gradient of NH4 HPO4. ^3 H-PI-4P and adenosine diphosphate were used as internal standards.
Amino acid residues at positions Tyr-191, Met-194 and Tyr-209 were mutated using a site-directed mutagenesis system from Promega (Madison, Wis.). […] Cells were assessed for cell surface expression of CD28 by fluorescence-activated cell sorting (FACS) (EPICS, Coulter Immunology, Hialeah, Fla.). […]

Data on five compounds can be found in patent publication US5525503A, “Signal transduction via CD28” (priority 1993, dated 1996).

Regarding `C=CC[C@@H]1/C=C(\C)C[C@H](C)C[C@H](OC)[C@H]2O[C@@](O)(C(=O)C(=O)N3CCCC[C@H]3C(=O)O[C@H](/C(C)=C/[C@@H]3CC[C@@H](O)[C@H](OC)C3)[C@H](C)[C@@H](O)CC1=O)[C@H](C)C[C@@H]2OC` [FK506], the “sensitivity of CD28 signalling to the reagent” value with CD28 signalling is on record as “resistant”. `CSCC[C@H](NC(=O)[C@@H]1CCCN1C(=O)[C@H](CCSC)NC(=O)[C@H](Cc1ccc(OP(=O)(O)O)cc1)NC(=O)[C@H](CCC(=O)O)NC(=O)[C@H](CCC(=O)O)NC(=O)[C@@H](N)CCC(=O)O)C(=O)N[C@@H](CCC(=O)O)C(=O)N[C@@H](CC(=O)O)C(=O)N[C@@H](CC(C)C)C(=O)N[C@@H](Cc1ccc(O)cc1)C(=O)N[C@@H](CC(C)C)C(=O)O` [Glu-Glu-Glu-Tyr-Met-Pro-Met-Glu-Asp-Leu-Tyr-Leu]: the “reduction of the level of CD28-associated p85 PI 3-kinase” value in series [1] is listed as 60-80%.

Take “C194: CD28 with Met-194 mutated to Cys by site-directed mutagenesis”: in the series with PI 3-kinase, the “effect of CD28 mutation on associated PI 3-kinase (TLC, in words)” value is on record as “partial effect in reducing the level of associated kinase” and the “reduction of CD28-associated PI 3-kinase activity (laser densitometry of PI-P spots)” value was “approximately 40%”.

Consider “F209: CD28 with distal Tyr-209 mutated to Phe, control mutant”, for which the “effect of CD28 mutation on associated PI 3-kinase (TLC, in words)” value in the series with PI 3-kinase was “no effect relative to the wild type control”. Turning to cholera toxin, in the series on CD28 signalling, the “sensitivity of CD28 signalling to the reagent” value was “resistant”.
